Data: ChEMBL document CHEMBL2021834, “Novel sulfonylurea derivatives as H3 receptor antagonists. Preliminary SAR studies” (Eur J Med Chem, 2012)

The molecules below were run against Voltage-gated inwardly rectifying potassium channel KCNH2 (Homo sapiens, UniProt Q12809).
Sequence of Voltage-gated inwardly rectifying potassium channel KCNH2 (Q12809 whole entry): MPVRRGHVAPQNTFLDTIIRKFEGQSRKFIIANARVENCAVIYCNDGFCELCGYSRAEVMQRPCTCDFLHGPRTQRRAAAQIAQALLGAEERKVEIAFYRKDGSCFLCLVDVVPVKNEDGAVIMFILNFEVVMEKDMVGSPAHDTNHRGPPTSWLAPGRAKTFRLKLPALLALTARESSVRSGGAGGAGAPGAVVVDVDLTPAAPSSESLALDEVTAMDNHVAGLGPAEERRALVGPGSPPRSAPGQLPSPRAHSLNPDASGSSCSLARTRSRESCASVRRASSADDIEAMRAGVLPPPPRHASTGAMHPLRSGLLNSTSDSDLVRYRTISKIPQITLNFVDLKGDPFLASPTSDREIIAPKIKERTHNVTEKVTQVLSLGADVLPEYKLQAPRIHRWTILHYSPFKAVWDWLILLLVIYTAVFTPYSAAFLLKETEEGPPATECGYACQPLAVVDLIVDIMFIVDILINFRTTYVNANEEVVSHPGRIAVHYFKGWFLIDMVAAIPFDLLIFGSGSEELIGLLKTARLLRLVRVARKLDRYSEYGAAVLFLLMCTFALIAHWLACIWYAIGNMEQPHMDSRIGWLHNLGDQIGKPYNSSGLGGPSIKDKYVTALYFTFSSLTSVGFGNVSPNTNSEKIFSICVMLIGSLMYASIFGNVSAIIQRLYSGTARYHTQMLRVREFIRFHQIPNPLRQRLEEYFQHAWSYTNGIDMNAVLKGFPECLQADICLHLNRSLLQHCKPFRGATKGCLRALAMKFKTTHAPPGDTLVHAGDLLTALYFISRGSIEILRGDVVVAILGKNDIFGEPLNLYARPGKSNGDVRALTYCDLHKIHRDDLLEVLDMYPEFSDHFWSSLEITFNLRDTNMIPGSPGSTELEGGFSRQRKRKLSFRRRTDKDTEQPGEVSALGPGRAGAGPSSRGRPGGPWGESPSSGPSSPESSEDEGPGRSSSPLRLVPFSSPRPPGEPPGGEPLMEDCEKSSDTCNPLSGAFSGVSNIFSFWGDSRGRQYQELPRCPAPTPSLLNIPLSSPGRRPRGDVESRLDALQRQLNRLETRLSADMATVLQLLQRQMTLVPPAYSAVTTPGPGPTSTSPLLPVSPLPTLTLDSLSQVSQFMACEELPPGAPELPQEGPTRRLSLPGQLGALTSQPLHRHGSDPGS
Description: Displacement of [3H] dofetilide from human ERG channel expressed in HEK293 cells after 45 mins by scintillation counting method

SMILES | IC50
CCOC(=O)C1CCN(CCCOc2ccc(S(N)(=O)=O)cc2)CC1 | 76.5 µM
Cc1ccc(NC(=O)NS(=O)(=O)c2ccc(OCCCN3CCCCC3)cc2)cc1 | > 100 µM
O=C(Nc1cccc2ccccc12)NS(=O)(=O)c1ccc(OCCCN2CCCC2)cc1 | > 100 µM
O=C(Nc1ccc(C(F)(F)F)cc1)NS(=O)(=O)c1ccc(OCCCCN2CCCC2)cc1 | 49.1 µM
CC(C)NC(=O)NS(=O)(=O)c1ccc(OCCN2CCCC2)cc1 | > 100 µM
CCOC(=O)C1CCN(CCCCOc2ccc(S(=O)(=O)NC(=O)Nc3ccccc3)cc2)CC1 | > 100 µM
CCOC(=O)C1CCN(CCCCOc2ccc(S(N)(=O)=O)cc2)CC1 | 18.8 µM
O=C(Nc1ccccc1C(F)(F)F)NS(=O)(=O)c1ccc(OCCCN2CCCCC2)cc1 | > 100 µM
O=C(Nc1ccc(C(F)(F)F)cc1)NS(=O)(=O)c1ccc(OCCN2CCCC2)cc1 | > 100 µM
O=C(Nc1cc(Cl)ccc1Cl)NS(=O)(=O)c1ccc(OCCCCN2CCCCC2)cc1 | > 100 µM
O=C(Nc1ccccc1)NS(=O)(=O)c1ccc(OCCCN2CCCCC2)cc1 | > 100 µM
COc1ccc(NC(=O)NS(=O)(=O)c2ccc(OCCCN3CCCCC3)cc2)cc1 | > 100 µM
O=C(Nc1ccc(C(F)(F)F)cc1)NS(=O)(=O)c1ccc(OCCN2CCCCC2)cc1 | > 100 µM
CCOC(=O)C1CCN(CCOc2ccc(S(=O)(=O)NC(=O)Nc3ccccc3)cc2)CC1 | > 100 µM
